Columns and labels:
[1] = molecular target: T1, Cholecystokinin receptor type A (Rattus norvegicus, UniProt P30551); test: In vitro inhibition of [125I]- Bolton Hunter CCK-8 to Cholecystokinin type A receptor in the rat pancreas.
T1 sequence (P30551 whole entry): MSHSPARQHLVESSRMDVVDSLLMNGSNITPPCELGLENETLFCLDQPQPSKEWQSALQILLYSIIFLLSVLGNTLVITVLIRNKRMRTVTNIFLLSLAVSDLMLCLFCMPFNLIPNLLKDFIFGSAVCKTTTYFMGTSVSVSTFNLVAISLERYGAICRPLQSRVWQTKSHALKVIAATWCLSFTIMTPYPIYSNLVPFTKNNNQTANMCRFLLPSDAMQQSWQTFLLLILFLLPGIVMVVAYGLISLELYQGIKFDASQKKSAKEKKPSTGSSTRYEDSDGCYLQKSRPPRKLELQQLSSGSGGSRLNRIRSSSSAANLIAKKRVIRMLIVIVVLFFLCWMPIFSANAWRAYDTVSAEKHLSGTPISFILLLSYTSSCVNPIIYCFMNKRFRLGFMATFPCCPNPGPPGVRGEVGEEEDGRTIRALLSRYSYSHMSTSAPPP

[2] = Ratio of inhibition at CCK-A compared to CCK-B receptors.
[3] = molecular target: T2, Gastrin/cholecystokinin type B receptor (Mus musculus, UniProt P56481); test: In vitro inhibition of [125I]- Bolton Hunter CCK-8 binding to Cholecystokinin type B receptor in the mouse cerebral cortex.; type: tissue-based
T2 sequence (P56481 whole entry): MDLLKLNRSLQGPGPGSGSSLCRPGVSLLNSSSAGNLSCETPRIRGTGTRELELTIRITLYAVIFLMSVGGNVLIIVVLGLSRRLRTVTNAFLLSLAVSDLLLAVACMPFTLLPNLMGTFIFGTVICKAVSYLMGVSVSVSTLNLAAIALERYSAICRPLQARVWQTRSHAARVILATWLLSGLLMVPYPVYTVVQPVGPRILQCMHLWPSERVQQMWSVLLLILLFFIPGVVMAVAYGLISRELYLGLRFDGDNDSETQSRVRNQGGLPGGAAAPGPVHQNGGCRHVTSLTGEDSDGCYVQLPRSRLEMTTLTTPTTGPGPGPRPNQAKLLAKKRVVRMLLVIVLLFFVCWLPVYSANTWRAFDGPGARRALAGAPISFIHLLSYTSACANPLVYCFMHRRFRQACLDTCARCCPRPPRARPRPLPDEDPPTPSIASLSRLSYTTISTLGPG

Row | SMILES | IC50 [1] [nM] | Ratio [2] | IC50 [3] [nM]
1 | C[C@@](Cc1c[nH]c2ccccc12)(NC(=O)OC1C2CC3CC(C2)CC1C3)C(=O)N[C@@H](CC(=O)O)Cc1ccccc1 (some centres undefined) | 25.5 | – | –
2 | COC(=O)CN(CCc1ccccc1)C(=O)[C@](C)(Cc1c[nH]c2ccccc12)NC(=O)OC1[C@H]2C[C@@H]3C[C@@H](C[C@H]1C3)C2 (some centres undefined) | 2330 | 4.4 | 532
3 | C[C@@](Cc1c[nH]c2ccccc12)(NC(=O)OC1[C@H]2C[C@@H]3C[C@@H](C[C@H]1C3)C2)C(=O)N(CCc1ccccn1)CC(=O)O (some centres undefined) | 337 | 146 | 2.31
4 | COC(=O)CN(CCc1ccccn1)C(=O)C(C)(Cc1c[nH]c2ccccc12)NC(=O)OC1[C@H]2C[C@@H]3C[C@@H](C[C@H]1C3)C2 (single isomer, unassigned) | 2520 | 27.7 | 90.9
5 | CC(Cc1c[nH]c2ccccc12)(NC(=O)OC1[C@H]2C[C@@H]3C[C@@H](C[C@H]1C3)C2)C(=O)N(CCc1ccccc1)CC(=O)O (single isomer, unassigned) | 1080 | – | –
6 | C[C@@](Cc1c[nH]c2ccccc12)(NC(=O)OC1[C@H]2C[C@@H]3C[C@@H](C[C@H]1C3)C2)C(=O)NCCc1ccccn1 (some centres undefined) | 1850 | 119 | 15.5
7 | CC(Cc1c[nH]c2ccccc12)(NC(=O)OC1[C@H]2C[C@@H]3C[C@@H](C[C@H]1C3)C2)C(=O)N(CCC(=O)O)CCc1ccccc1 (single isomer, unassigned) | 527 | – | –
8 | C[C@@](Cc1c[nH]c2ccccc12)(NC(=O)OC1[C@H]2C[C@@H]3C[C@@H](C[C@H]1C3)C2)C(=O)N(CCC(=O)O)CCc1ccccc1 (some centres undefined) | 672 | – | –
9 | COC(=O)CCCCCCN(CCc1ccccc1)C(=O)[C@](C)(Cc1c[nH]c2ccccc12)NC(=O)OC1[C@H]2C[C@@H]3C[C@@H](C[C@H]1C3)C2 (some centres undefined) | 6320 | 35.7 | 177
10 | C[C@@](Cc1c[nH]c2ccccc12)(NC(=O)OC1[C@H]2C[C@@H]3C[C@@H](C[C@H]1C3)C2)C(=O)N(CCc1ccccc1)CC(=O)O (some centres undefined) | > 1000 | – | –
11 | C[C@@](Cc1c[nH]c2ccccc12)(NC(=O)OC1[C@H]2C[C@@H]3C[C@@H](C[C@H]1C3)C2)C(=O)N(CCCCCCC(=O)O)CCc1ccccc1 (some centres undefined) | > 1000 | > 2.9 | 348
12 | COC(=O)CCN(CCc1ccccc1)C(=O)C(C)(Cc1c[nH]c2ccccc12)NC(=O)OC1[C@H]2C[C@@H]3C[C@@H](C[C@H]1C3)C2 (single isomer, unassigned) | 1980 | 17.5 | 113
13 | CC(Cc1c[nH]c2ccccc12)(NC(=O)OC1[C@H]2C[C@@H]3C[C@@H](C[C@H]1C3)C2)C(=O)N(CCCC(=O)O)CCc1ccccc1 (single isomer, unassigned) | 564 | 7 | 80.2
